Laboratory results as given in patent publication US10137169B2, “Compositions and uses thereof” (FOLLICUM AB, priority 2011, dated 2018).
Entries after “also recorded” stand apart in the source; their conditions may differ.

Legend:
Mice (C57BL/6) [1] = test: Histological analysis of peeled skin: follicle count in subcutis and skin thickness (Example D); assay type: in vivo; design: Skin thickness: unit not given here; conditions: Mean ± sem, day 16, 60 nM
Description: (§1) Animals and treatments are as described above in Example B.
(§2) All animals were sacrificed on day 16.
Peeled skin sections were prepared for histological analysis as described in Example A. Follicle count in the subcutis and skin thickness were then measured.
(§3) In the present study, the animals were preselected for pink skin (telogen phase) and the test polypeptide was administered by subcutaneous/topical route. A good hair growth promoter triggers the transition from the resting telogen phase to the active anagen phase, and thus a transition from light skin to dark skin. This dark pigmentation may result from the collection of melanin in the hair follicles, in preparation for new hair growth during the anagen phase. Melanin synthesis of follicular melanocytes is strictly coupled to the anagen phase, ceases during catagen and is absent in telogen phase. […] Upon termination, the dorsal skin of the animals was then excised out by peeling and the peeled skin reversed and observed for the induction of melanogenesis indicated by visual blackening. […] A good hair growth promoter increases no. of follicles in sub cutis and skin thickness.

Mice (C57BL/6) [2] = test: Observation of melanogenesis / anagen induction, external and peeled skin (Example D); assay type: in vivo; conditions: 60 nM; for Black colour in peeled skin (day 16): animals out of 5; for % anagen induction**: with respect to black colour in peeled skin; for Black colour in peeled skin (day 16) / % anagen induction**: day 16; for % anagen induction*: with respect to external skin colour change from pink to black
Description: as §1, §2
Following completion of the term of hair growth assessment for Example B, the animals were euthanized and dorsal skin peeled and removed for observation of the internal surface.
The hair growth cycle consists of three phases: a resting telogen phase (C57BL/6 skin is a pale pink colour), an active hair growth anagen phase (where the skin becomes dark gray or black), and finally a catagen phase (where hair growth stops, and the skin transitions back to the telogen phase, returning to a pale pink colour).
as §3

Mice (C57BL/6) [3] = test: In vivo study of hair growth effect in mice, hair growth score (Example B); design: Hair growth score / Hair growth score, Mean: scale not given here; conditions: for day from which hair growth was evident / hair growth effect / Hair growth score, Mean: 60 nM s.c. on Days 1, 5 and 9; for hair growth effect: assessment to day 16; for Hair growth score, Mean: mean of 5 animals
Description: Mice (C57BL/6) were used at an age of 6 to 8 weeks.
• Selection of animals in telogen phase of hair growth. • Clipping of dorsal back of animals • Subcutaneous injection of test peptide/vehicle • Visual analysis: Percentage anagen induction; Mean hair growth score; Visual melanogenesis: • Histological analysis: Follicle count in subcutis; Morphometry for skin thickness. Treatment Groups • Animals were assigned randomly to treatment groups (see Table 3)
• Animals were administered the specified treatment on Days 1, 5 and 9 • Treatment were administered by subcutaneous injection into dorsal clipped skin Scoring Criteria • The effect of the treatments was observed and scored daily according to the criteria in Table 4

Mice (C57BL/6) [4] = test: In vivo study of hair growth effect in mice of the wildtype osteopontin fragment (Example C); design: Hair growth score, Mean: scale not given here; conditions: for Hair growth score, Mean: mean of 6 animals
Description: Animals, as described above in Example B, were treated as described in Table 6:
• This sequence is a fragment of wildtype mouse osteopontin, and corresponds to the region of the protein from which “FOL-004” is derived (i.e. “FOL-004” is a mutated version of wildtype fragment “FOL-001”). • Animals were administered the specified treatment on Days 1, 5 and 9 • Treatment were administered by subcutaneous injection into dorsal clipped skin Scoring Criteria • The effect of the treatments was observed and scored daily as described in Example B. Results

male wtC57BL/6N mice = test: In vivo study of hair follicle density in mouse skin after intracutaneous injection (Example A); conditions: data not shown
Description: The modified osteopontin polypeptide sequence SEQ ID NO:1 was cloned into a pCEP4 expression vector by the use of XhoI and BamHI restriction enzyme sites. The pCEP4 expression vector contains an ampicillin resistance gene for expression in bacteria and a hygromycin resistance gene for expression in eukaryotic EBNA cells. The polypeptide containing vector were transformed into competent XL-10 bacteria cells, multiplied and isolated with Qiagen midi prep kit. Isolated vectors were then transfected into human EBNA cells by the use of Fugene transfection reagent according to manufacture protocol (Invitrogen).
Medium from EBNA cell culture containing the produced polypeptide were collected after three to four days of culture. Polypeptides produced by pCEP4 plasmid contain an inserted His-tag, which is used to facilitate the isolation with Ni-sepharose gel chromatography (Invitrogen). Collected medium was diluted with binding buffer (20 mM sodium phosphate, 500 mM sodium chloride, pH 7.8), Ni-sepharose suspension was added before incubation on shaker overnight at 4° C. […]
Protocol for Hematoxylin-staining of paraffin-embedded sections of Group 1 1. […] Mount slide using Permount and coveslip. a) the time depends on the type of hematoxylin used, 20 sec to 10 min (which can be determined by the use of test slides) b) filtrated before use Results

Substance	Follicle count in subcutis (no.) (Mice (C57BL/6) [1]; all animals)	Skin thickness (Mice (C57BL/6) [1]; all animals)	Follicle count in subcutis (no.) (Mice (C57BL/6) [1]; animals in anagen only)	Skin thickness (Mice (C57BL/6) [1]; animals in anagen only)	No. of animals showing hair growth (Mice (C57BL/6) [2])	Skin colour (external) (Mice (C57BL/6) [2])	Skin colour (external): animals with this colour (Mice (C57BL/6) [2])	Black colour in peeled skin (day 16) (Mice (C57BL/6) [2])	% anagen induction** (Mice (C57BL/6) [2]) [%]	% anagen induction* (Mice (C57BL/6) [2]) [%]	day from which hair growth was evident (Mice (C57BL/6) [3]) [days]	hair growth effect (Mice (C57BL/6) [3])	Hair growth score, Mean (Mice (C57BL/6) [3]; Day 1)	Hair growth score, Mean (Mice (C57BL/6) [3]; Day 2)	Hair growth score, Mean (Mice (C57BL/6) [3]; Day 5)	Hair growth score, Mean (Mice (C57BL/6) [3]; Day 6)	Hair growth score, Mean (Mice (C57BL/6) [3]; Day 7)	Hair growth score, Mean (Mice (C57BL/6) [3]; Day 8)	Hair growth score, Mean (Mice (C57BL/6) [3]; Day 9)	Hair growth score, Mean (Mice (C57BL/6) [3]; Day 12)	also measured
VDTYDGDISVVYGLR (Preferred 15-amino acid peptide) [FOL-005]	34.80 ± 14.58	348.80 ± 40.05	58 ± 14.58	348.80 ± 40.05	5/5	Black	(5/5 animals)	3/5	60	100	5	rapid hair growth; also recorded: particular fast onset of action	0.0	0.0	1.3	1.7	1.9	2.1	2.3	2.7	Hair growth score (Mice (C57BL/6) [3]; Day 5, individual animal, 60 nM, 25 μl s.c. on Days 1, 5 and 9): 2.0; Hair growth score, Mean (Mice (C57BL/6) [3]; Day 13): 2.8; Hair growth score, Mean (Mice (C57BL/6) [3]; Day 14): 2.8; Hair growth score, Mean (Mice (C57BL/6) [3]; Day 15): 3.0; Hair growth score, Mean (Mice (C57BL/6) [3]; Day 16): 3.0
VDVPNGDISLAYGLR (Preferred 15-amino acid peptide (FOL-004))	6.20 ± 5.80	312.2 ± 15.60	29 ± 5.8	312.2 ± 15.60	5/5	Black	(5/5 animals)	1/5	20	100	5	rapid hair growth; also recorded: particular fast onset of action	0.0	0.0	1.7	2.1	2.4	2.5	2.6	2.7	Hair growth score, Mean (Mice (C57BL/6) [3]; Day 13): 2.7; Hair growth score, Mean (Mice (C57BL/6) [3]; Day 14): 2.7; Hair growth score, Mean (Mice (C57BL/6) [3]; Day 15): 2.9; Hair growth score, Mean (Mice (C57BL/6) [3]; Day 16): 3.0
VDVPNGRGDSLAYGLR (FOL-001) [fragment of wildtype mouse osteopontin, region from which FOL-004 is derived]																					day at which hair growth effect became evident (Mice (C57BL/6) [4]; 60 nM s.c. on Days 1, 5 and 9): ~9 days; hair growth effect (Mice (C57BL/6) [4]; 60 nM s.c. on Days 1, 5 and 9): delayed but detectable hair growth effect; plateau of hair growth score (Mice (C57BL/6) [4]; 60 nM s.c. on Days 1, 5 and 9): about 1.3; hair growth effect (Mice (C57BL/6) [4]; 60 nM s.c. on Days 1, 5 and 9, listed as equivalent non-mutated wild type sequence): delayed onset of hair growth stimulation; Hair growth score, Mean (Mice (C57BL/6) [4]; Day 1, 60 nM s.c. on Days 1, 5 and 9): 0; Hair growth score, Mean (Mice (C57BL/6) [4]; Day 2, 60 nM s.c. on Days 1, 5 and 9): 0; Hair growth score, Mean (Mice (C57BL/6) [4]; Day 5, 60 nM s.c. on Days 1, 5 and 9): 0.17; Hair growth score, Mean (Mice (C57BL/6) [4]; Day 6, 60 nM s.c. on Days 1, 5 and 9): 0.17; Hair growth score, Mean (Mice (C57BL/6) [4]; Day 7, 60 nM s.c. on Days 1, 5 and 9): 0.17; Hair growth score, Mean (Mice (C57BL/6) [4]; Day 8, 60 nM s.c. on Days 1, 5 and 9): 0.17; Hair growth score, Mean (Mice (C57BL/6) [4]; Day 9, 60 nM s.c. on Days 1, 5 and 9): 0.58; Hair growth score, Mean (Mice (C57BL/6) [4]; Day 12, 60 nM s.c. on Days 1, 5 and 9): 1.17; Hair growth score, Mean (Mice (C57BL/6) [4]; Day 13, 60 nM s.c. on Days 1, 5 and 9): 1.17; Hair growth score, Mean (Mice (C57BL/6) [4]; Day 14, 60 nM s.c. on Days 1, 5 and 9): 1.33; Hair growth score, Mean (Mice (C57BL/6) [4]; Day 15, 60 nM s.c. on Days 1, 5 and 9): 1.33; maximum effect relative to that observed with FOL-004 (Mice (C57BL/6) [4]; hair growth score): less than 50%
wildtype mouse osteopontin: wildtype mouse osteopontin protein, comparator in Example A																					effect on hair growth (male wtC57BL/6N mice): no detectable effect on hair growth
